Reference: patent US8263605B2, “Modulators of muscarinic receptors” (Vertex Pharmaceutical Incorporated, priority 2006, dated 2012)

Columns and labels:
M1 muscarinic receptor = target: T1, M1 muscarinic receptor (Homo sapiens, UniProt P11229); assay: Functional mobilization of intracellular calcium (FLIPR), M1-CHO cells; type: cell-based; conditions: for Emax: 100% efficacy is the maximum response obtained with the Carbachol control; for M1 Activity: CHO cells expressing M1, calcium mobilization
T1 construct: expressed in transfected cells; host or cells: CHO (M1-CHO)
T1 sequence (P11229 1-460): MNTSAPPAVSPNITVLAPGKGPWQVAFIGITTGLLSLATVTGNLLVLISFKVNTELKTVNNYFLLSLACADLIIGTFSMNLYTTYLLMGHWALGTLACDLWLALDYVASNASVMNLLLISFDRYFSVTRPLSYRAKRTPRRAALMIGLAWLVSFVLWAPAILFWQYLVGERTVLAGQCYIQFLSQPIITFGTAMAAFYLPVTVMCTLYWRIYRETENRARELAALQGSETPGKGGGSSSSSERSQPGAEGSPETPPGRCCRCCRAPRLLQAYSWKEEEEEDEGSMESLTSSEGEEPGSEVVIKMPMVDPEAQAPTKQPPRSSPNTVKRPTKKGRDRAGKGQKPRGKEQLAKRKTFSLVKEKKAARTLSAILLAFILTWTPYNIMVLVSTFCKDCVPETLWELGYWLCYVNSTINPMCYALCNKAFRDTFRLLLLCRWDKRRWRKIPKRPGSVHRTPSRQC
Protocol: (§1) Functional Mobilization of Intracellular Calcium to Determine Muscarinic Receptor Activity:
(§2) CHO cells expressing muscarinic receptors (M1 to M5) are grown as monolayers in tissue culture flasks at 37° C. in a humidified atmosphere containing 5% CO2 and passaged every 3-5 days. The growth media is Dulbecco's modified eagles medium (DMEM, Gibco Cat#12430-054), containing 25 mM Hepes and supplemented with Fetal Bovine Serum (Hyclone, cat# SH30071.03), 0.1 mM of MEM non-essential amino acids (GIBCO, Cat#11140-050), 1 mM MEM Sodium Pyruvate (GIBCO Cat#11360-070) and 100 units/ml of Penicillin G and 100 μg/ml of Streptomycin (GIBCO Cat#15140-122). The recombinant muscarinic receptor cell lines are grown under antibiotic pressure with media containing 25 μg/ml zeocin and 500 μg/ml G418 (M1-CHO), 4 μg/ml puromycin, 50 μg/ml zeocin and 2.5 μg/ml blasticidin (M2 and M4-CHO) or 50 μg/ml zeocin and 4 μg/ml puromycin (M3 and M5-CHO).
(§3) Cells are harvested at 80-90% confluence using Versene (GIBCO Cat#15040-066), collected by centrifugation and seeded 18-24 hours prior to running the calcium assay at a density of 5,000-10,000 cells/well in […], clear-bottomed 384-well plates (BD Biocoat, poly-D-lysine, Cat#356663). The day of the experiment, the cells are washed with a plate washer (Bioteck Instrunents, ELX 405) using bath 1 buffer (140-mM NaCl, 4.5-mM KCl, 2-mM CaCl2, 1-mM MgCl2, 10-mM Hepes-Na, 10-mM Glucose, pH 7.4, with NaOH) containing 1 mM Probenecid. Next, the calcium dye Fluo-3 (25 μl/well of Fluo-3 AM at 4 μM, Molecular Probes F-1241, in Bath 1 buffer containing 1 mM Probenecid) is added to the 25 μl of Bath 1 remaining in each well after the plate wash and the dye is loaded at 37° C. in the tissue culture incubator for 60-90 min. The fluorescent dye is removed using the plate washer with Bath 1 containing 1 mM Probenecid, leaving 25 μl/well of this solution after the wash. Alternatively, cells can be loaded with the calcium indicator from Molecular Devices (Calcium 3 Assay Reagents, Cat # R7181) adding 5 μl of a 5× solution dye in Bath 1 containing 1 mM Probenecid (10 ml per dye flask cat# R7182 to generate a solution 20×) to 20 μl of the same buffer. After loading for 60 min, the experiment can be run without having to remove the dye.
(§4) Compounds are prepared at a 2× fold concentration in a 96-well plate (round bottom, Costar Corning cat#3656), by reconstituting the pre-spotted compounds in bath 1 containing 1 mM probenecid. The final concentration DMSO is 0.5%, and the amount of DMSO is normalized across the assay plate. To determine an agonist action of the compounds on muscarinic receptors, the reconstituted compounds are added (25 μl compound/well) to the cell assay plate (containing 25 μl/well) using the multi-channel robotic system of the FLIPR 3 Instrument (Molecular Devices, Sunnyvale, Calif.). To determine a functional inhibitory action of the compounds on muscarinic receptors, the reconstituted compounds are added (25 μl compound/well) to the assay plate and pre-incubated for 15 min prior to adding 25 μl of Carbachol at 3× the EC80 for each muscarinic subtype. Alternatively, the compounds can be co-applied simultaneously with the agonist. In both assay modes, the fluorescence is recorded for 60 sec (excitation wavelength is […] and emission wavelength 540 nm) using the FLIPR 3 instrument.
(§5) The potency, efficacy and selectivity of the muscarinic compounds were evaluated by screening the compound activity across the whole family (M1 to M5 cells). Compounds were also screened for activity on other proteins such as other GPCRs and ion channels to determine selectivity on M4 receptors.
(§6) Examples of activities and efficacies of the muscarinic compounds of formulae (I, Ia, Ib, Ic, Id, and Ie) on modulating M1 and M4 receptors are shown below in Table 4. […]

M4 muscarinic receptor = target: T2, M4 muscarinic receptor (Homo sapiens, UniProt P08173); assay: Functional mobilization of intracellular calcium (FLIPR), M4-CHO cells; type: cell-based; conditions: for Emax: 100% efficacy is the maximum response obtained with the Carbachol control; for M4 Activity: CHO cells expressing M4, calcium mobilization
T2 construct: expressed in transfected cells; host or cells: CHO (M4-CHO)
T2 sequence (P08173 1-479): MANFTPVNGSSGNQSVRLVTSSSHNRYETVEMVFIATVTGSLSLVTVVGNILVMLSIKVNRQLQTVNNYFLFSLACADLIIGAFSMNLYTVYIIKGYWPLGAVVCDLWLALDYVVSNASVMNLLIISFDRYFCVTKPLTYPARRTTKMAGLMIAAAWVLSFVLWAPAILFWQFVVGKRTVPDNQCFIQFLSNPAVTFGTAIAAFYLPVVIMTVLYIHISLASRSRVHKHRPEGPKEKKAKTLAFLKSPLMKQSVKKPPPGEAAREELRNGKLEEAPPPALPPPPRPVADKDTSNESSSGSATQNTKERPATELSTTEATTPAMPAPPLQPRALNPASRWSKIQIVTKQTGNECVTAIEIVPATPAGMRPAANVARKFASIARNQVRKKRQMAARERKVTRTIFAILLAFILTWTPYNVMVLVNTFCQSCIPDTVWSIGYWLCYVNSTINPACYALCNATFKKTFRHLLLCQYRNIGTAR
Protocol: as §1, §2, §3, §4, §5, §6

Structure (SMILES) | Emax (M1 muscarinic receptor) [%] | M1 Activity (M1 muscarinic receptor) | Emax (M4 muscarinic receptor) [%] | M4 Activity (M4 muscarinic receptor)
C#CCOC(=O)N1CCC(N2CCC3(CCN(C(=O)N(C)C)c4ccccc43)CC2)CC1 [compound 4] | 25 to 100 | +++ (activity was measured to be less than 2.0 μM) | 25 to 100 | +++ (activity was measured to be less than 2.0 μM)
Cc1nsc(N2CCC(N3CCC4(CCN(C(=O)N(C)C)c5ccccc54)CC3)CC2)n1 [compound 6] | 25 to 100 | +++ (activity was measured to be less than 2.0 μM) | 25 to 100 | +++ (activity was measured to be less than 2.0 μM)
CCc1nsc(N2CCC(N3CCC4(CCN(C(=O)N(C)C)c5ccccc54)CC3)CC2)n1 [compound 7] | 25 to 100 | +++ (activity was measured to be less than 2.0 μM) | 25 to 100 | +++ (activity was measured to be less than 2.0 μM)
CN(C)C(=O)N1CCC2(CCN(C3CCN(c4cnccn4)CC3)CC2)c2ccccc21 [compound 8] | 25 to 100 | +++ (activity was measured to be less than 2.0 μM) | 25 to 100 | +++ (activity was measured to be less than 2.0 μM)
COC(=O)N1CCC(N2CCC3(CCN(C(C)=O)c4ccccc43)CC2)CC1 [compound 10] | 25 to 100 | +++ (activity was measured to be less than 2.0 μM) | 25 to 100 | +++ (activity was measured to be less than 2.0 μM)
C#CCOC(=O)N1CCC(N2CCC3(CCN(C(C)=O)c4ccccc43)CC2)CC1 [compound 12] | > 100 | +++ (activity was measured to be less than 2.0 μM) | 25 to 100 | +++ (activity was measured to be less than 2.0 μM)
CC#CCOC(=O)N1CCC(N2CCC3(CCN(C(C)=O)c4ccccc43)CC2)CC1 [compound 13] | 25 to 100 | +++ (activity was measured to be less than 2.0 μM) | 25 to 100 | +++ (activity was measured to be less than 2.0 μM)
CCC#CCOC(=O)N1CCC(N2CCC3(CCN(C(C)=O)c4ccccc43)CC2)CC1 [compound 14] | 25 to 100 | +++ (activity was measured to be less than 2.0 μM) | 25 to 100 | +++ (activity was measured to be less than 2.0 μM)
CC(=O)N1CCC2(CCN(C3CCN(c4nc(C)ns4)CC3)CC2)c2ccccc21 [compound 15] | 25 to 100 | +++ (activity was measured to be less than 2.0 μM) | 25 to 100 | +++ (activity was measured to be less than 2.0 μM)
CCc1nsc(N2CCC(N3CCC4(CCN(C(C)=O)c5ccccc54)CC3)CC2)n1 [compound 16] | 25 to 100 | +++ (activity was measured to be less than 2.0 μM) | 25 to 100 | +++ (activity was measured to be less than 2.0 μM)
CC(=O)N1CCC2(CCN(C3CCN(c4cnccn4)CC3)CC2)c2ccccc21 [compound 17] | 25 to 100 | +++ (activity was measured to be less than 2.0 μM) | 25 to 100 | +++ (activity was measured to be less than 2.0 μM)
CC(=O)N1CCC2(CCN(C3CCN(c4cnc5ccccc5n4)CC3)CC2)c2ccccc21 [compound 18] | 25 to 100 | ++ (activity was measured to be from 2.0 μM to 10.0 μM) | 25 to 100 | +++ (activity was measured to be less than 2.0 μM)
CN(C)C(=O)N1CCC2(CCN(C3CCN(C(=O)OCCC#N)CC3)CC2)c2ccccc21 [compound 19] | < 25 | ++ (activity was measured to be from 2.0 μM to 10.0 μM) | 25 to 100 | +++ (activity was measured to be less than 2.0 μM)
CN(C)C(=O)N1CCC2(CCN(C3CCN(c4nncs4)CC3)CC2)c2ccccc21 [compound 21] | 25 to 100 | ++ (activity was measured to be from 2.0 μM to 10.0 μM) | < 25 | ++ (activity was measured to be from 2.0 μM to 10.0 μM)
Cc1csc(N2CCC(N3CCC4(CCN(C(=O)N(C)C)c5ccccc54)CC3)CC2)n1 [compound 22] | 25 to 100 | ++ (activity was measured to be from 2.0 μM to 10.0 μM) | 25 to 100 | ++ (activity was measured to be from 2.0 μM to 10.0 μM)
CC(=O)N1CCC2(CCN(C3CCN(c4nncs4)CC3)CC2)c2ccccc21 [compound 23] | 25 to 100 | ++ (activity was measured to be from 2.0 μM to 10.0 μM) | 25 to 100 | ++ (activity was measured to be from 2.0 μM to 10.0 μM)
CC(=O)N1CCC2(CCN(C3CCN(c4nccs4)CC3)CC2)c2ccccc21 [compound 24] | 25 to 100 | ++ (activity was measured to be from 2.0 μM to 10.0 μM) | < 25 | ++ (activity was measured to be from 2.0 μM to 10.0 μM)
CC(=O)N1CCC2(CCN(C3CCN(c4nc(C)cs4)CC3)CC2)c2ccccc21 [compound 25] | 25 to 100 | ++ (activity was measured to be from 2.0 μM to 10.0 μM) | 25 to 100 | ++ (activity was measured to be from 2.0 μM to 10.0 μM)
COC(=O)N1C2CCC1CC(N1CCC3(CCN(C(=O)N(C)C)c4ccccc43)CC1)C2 (centres unmarked) [compound 26] | 25 to 100 | ++ (activity was measured to be from 2.0 μM to 10.0 μM) | 25 to 100 | +++ (activity was measured to be less than 2.0 μM)
CCOC(=O)N1C2CCC1CC(N1CCC3(CCN(C(=O)N(C)C)c4ccccc43)CC1)C2 (centres unmarked) [compound 27] | 25 to 100 | +++ (activity was measured to be less than 2.0 μM) | 25 to 100 | +++ (activity was measured to be less than 2.0 μM)
